Legend:
[1] = test system: mouse model with osteoporosis induced by ovariectomy; test: Mouse model with osteoporosis induced by ovariectomy (DEXA, micro CT); type: in vivo, C57BL/6 mouse; details: compared to PBS after ovariectomy, oral, five weeks
Description: Test groups were divided into a sham group (only surgery without ovary removal) and a group treated with ovariectomy (OVX). In the OVX group, the ovaries of an eight-week old female C57BL/6 mouse were removed by surgery and the mouse was bred for 6 weeks to induce osteoporosis. […] The sample was used after dissolving in PBS. Furthermore, the sham group was orally administered with PBS for five weeks.
Upon termination of five weeks' oral administration, the Bone Mineral Density (BMD) and Bone Mineral Content (BMC) of the mouse were measured using an osteoporosis analyzing device Dual-Energy X-ray Absorptiometry (DEXA; bone mineral density analyzer), and the results are shown in FIG. 21a-21d.
Upon termination of five weeks' oral administration, the mice of each experimental group were sacrificed, and the bones adjacent to tibia were separated. The bones were then photographed to obtain their 3-dimensional structures and cross-sections via micro CT, and the microstructures and volume of the bones and trabecular thickness were measured.

osteoclasts = test: Differentiation and formation of osteoclasts from bone marrow macrophages (TRAP assay); type: cell-based, ICR mouse; details: BMM cells
Description: Osteoclasts are known to directly affect bone resorption, and the differentiation and formation of osteoclasts play a very important role in osteoporosis. In order to examine the effect of the ethanol extract of Salvia plebeia R. Br. on the differentiation and formation of osteoclasts, the differentiation from bone marrow cells isolated from the femur of an ICR mouse into osteoclasts was observed.
Bone marrow cells were separated from the femur of a three- to six-week old ICR mouse, and the separated cells were treated with M-CSF (30 ng/ml) for 3 days, thereby inducing their differentiation into bone marrow macrophage (BMM). Then, the BMM was treated with M-CSF (30 ng/ml) and RANKL (100 ng/ml) for 4 days, thereby inducing them to be differentiated into osteoclasts. […] Then, the differentiation and formation of osteoclasts were confirmed by TRAP assay.

SMILES: NCCCC(O)(P(=O)(O)O)P(=O)(O)O [alendronate]
- Bone Mineral Content (BMC) [1]: significant increase
- differentiation of osteoclasts (osteoclasts; 10 μM): differentiation of osteoclasts was observed
- formation of osteoclasts (osteoclasts; 30 and 60 μM): osteoclasts were not formed due to toxicity

From patent publication US20150174186A1, “PHARMACEUTICAL COMPOSITION FOR PREVENTING OR TREATING STAT3-MEDIATED DISEASE, COMPRISING SALVIA PLEBEIA R. BR. EXTRACT OR FRACTION THEREOF AS ACTIVE INGREDIENT” (Korea Research Institute of Bioscience and Biotechnology, priority 2012, published 2015)
